Source: patent US8394776B2, “Use of ursolic acid saponin,oleanolic acid saponin in preparation of increasing leucocytes and/or platelet medicine” (Chengdu Di'Ao Jiuhong Pharmaceutical Factor, priority 2007, dated 2013)
Marks after values point to notes of the source that are not given here.

B1: G-CSF: recombinant granulocyte colony-stimulating factor, manufactured by QI LU Pharmaceutical Co., LTD., Shandong (protein, UniProt P09919 31-207, looked up)
Granulocyte …: TPLGPASSLPQSFLLKCLEQVRKIQGDGAALQEKLVSECATYKLCHPEELVLLGHSLGIPWAPLSSCPSQALQLAGCLSQLHSGLFLYQGLLQALEGISPELGPTLDTLQLDVADFATTIWQQMEELGMAPALQPTQGAMPAFASAFQRRAGGVLVASHLQSFLEVSYRVLRHLAQP

How the values were obtained:
leukocytes (WBC) = experiment: Cyclophosphamide-induced leukopenia in mice: leukocytes (WBC); format: in vivo, Kunming mice
Method: (§1) Further, in vivo experiments were carried out on the compounds involved in the present invention using animal models of cyclophosphamide-induced leukopenia in mice. Experimental methods are briefed as follows: Healthy Kunming mice, of which half were male and the other half were female, were divided into groups, each group incuding 18 mice, and those mice weighing 18-22 g were selected and divided into groups randomly according to their body weights. Each group was given a different drug, wherein the negative control group and model control group were given physiological saline of the same volume, and the positive control group was treated with granulocyte colony-stimulating factors 40 μg/kg through subcutaneous injection (injection volume: 0.1 ml/10 g). After administration for 3 days, except the negative control group, other treatment groups were treated with 100 mg/kg cyclophosphamide (CY) through lumbar injection once a day for three days to cause a decrease of leukocytes in mice. A drop of blood (20 μl) was taken from posterior orbital venous plexus to detect the hemogram to observe the situation of leukocytes and platelets on day 1, day 3 and/or day 5 after the final lumbar injection of cyclophosphamide (i.e day 1, day 3 and/or day 5 after modeling) (Note: Each treatment group was administrated incessantly). The mice were killed on day 5 after the final lumbar injection of cyclophosphamide (i.e day 5 after modeling), and the leukocytes (WBC) and platelets (PLT) of the hemogram index were counted.
This experiment mainly studies the effect of G-1, G-6 and G-8 of ursolic acid saponin in increasing leukocytes, and compares the therapeutic effects of aglycon of ursolic acid and oleanolic acid and of the compound G-22 which has been disclosed by a patent.
(§2) The purpose of this experiment is to study the effect of G-1, G-3, G-11 and G-12 of ursolic acid saponin and oleanolic acid saponin in increasing platelets, and to observe whether G-11 and G-12 of oleanolic acid saponin have an effect in increasing leukocytes.

[1] = tested on: bone marrow mononuclear cell (BMMNC); experiment: Monocytic proliferation in bone marrow of mice cultured in vitro (SRB method); format: cell-based, KunMing mice; conditions: cultured 5 days; for Growth Rate of Proliferation %, 1 μg/ml: versus blank control
Text: 15-20 KunMing mice (purchased from Laboratory Animal Center of Zhengzhou University, Henan) of either sex were killed by cervical vertebral dislocation. Bilateral thighbones were isolated and caput femoris was cut off. The marrow was washed repeatedly with serum-free RPMI1640 (Gibco Corp.), the wash solution containing marrow cells was collected, sucked and blew repeatedly with a pipette to make the cells disperse. After standing for a moment, the supernatant was sucked up and centrifugated at 100 g for 3 min to collect the cell pellet. The cells were resuspended in a culture media and brought to a volume of 5 ml. The cell suspension was added to the upper layer of a centrifugal tube containing 5 ml of a lymphocyte separation medium of mice and centrifugated at 400 g for 30 min. The milk-white bone marrow mononuclear cell (BMMNC) layer in the middle of the interface was collected and washed with serum-free medium RPMI1640 for three times to obtain a BMMNC suspension, which was inoculated into a 96-well plate at forty thousand per well after counting. Positive drugs rhG-CSF (recombinant granulocyte colony-stimulating factor, manufactured by QI LU Pharmaceutical Co., LTD., Shandong) or test samples of different concentrations were added, and meanwhile a blank control group without drug was established. They were cultured in a 5% CO2 incubator at 37 for 5 days. Cell proliferation was measured by a conventional SRB (Sigma) method in which OD at 490 nm was measured after being dyed with SRB. The growth rates of cell proliferation after drug treatment were calculated (Growth rate of cell proliferation=experimental group-blank control group/blank control group*100%).

erythrocytes = experiment: Comparison of hemolytic activities (HD50); format: cell-based, rabbit; conditions: for HD50 (drug concentration causing 50% hemolysis): 10% rabbit erythrocyte suspension, 37° C., 1 hour, from linear regression over 40-200 μg/ml
Method: The test samples were dissolved in DMSO/physiological saline (1:4) as a solvent to generate the tested concentration gradients of 40, 80, 120, 160, 200 μg/ml. Blood (25 ml) was taken from a rabbit heart, poured into an erlenmeyer flask containing glass beads and shook gently for 10 min to remove fibrinogen so as to convert the blood into defidrinated blood. The resultant blood was transferred into a graduation centrifugal tube. About 10 times physiological saline was added, shook up and centrifuged at 2000 r/min for 5 minutes. The supernatant was removed, and the precipitated erythrocytes were washed with physiological saline again by the above method for 4 times until the supernatant was colorless and transparent. The resulant erythrocytes were prepared into a 10% suspension using physiological saline for testing. 250 μl of the 10% erythrocyte suspension was added into 2.5 ml of a tested sample, solvent (blank control) or distilled water (positive control), mixed thoroughly, and immediately placed in a thermotank maintained at 37° C. for incubation; and it was taken out 1 hour later and centrifuged at 3000 r/min for 5 minutes. The supernatant was taken for determining the OD value at 540 nm with a spectrophotometer. Hemolysis (Hemolysis Percentage)=(absorbance of sample−absorbance of blank control)×100%÷(absorbance of positive control-absorbance of blank control); and the data processing was performed by SPSS13.0 statistical software with drug concentration as an independent variable X and hemolysis as a dependent variable Y to obtain a linear regression equation; then, the drug concentration causing 50% hemolysis, i.e HD50, was calculated according to the equation. A P-value <0.05 was considered statistically significant.

platelets (PLT) = experiment: Cyclophosphamide-induced leukopenia in mice: platelets (PLT); format: in vivo, Kunming mice; conditions: Experimental Example 3; for difference in increasing platelets compared with G-22 (in words): day 5 after modeling
Method: as §1, §2

WBC = experiment: 60Co-γ-induced leukopenia in mice: WBC; format: in vivo, Kunming mice
Text: In order to illustrate the present invention in detail, with a model induced by ^60Co-γ rays, the effects of G-1 and G-22 on leukocytes of chemotherapy-induced-leukopenia mice were compared. The specific operation and the results are as follows.
Healthy Kunming mice, of which half were male and the other half were female, were divided into 6 groups randomly, with 17-18 in each group. Blood was taken from caudal vein to determine the normal hemogram (leucocyte, erythrocyte, platelet and hemoglobin), and adjustments were made according to body weights and hemogram results. The normal control group and model group were given isometric physiological saline once a day for 7 days, and then the post-radiation hemogram was determined. Except the normal control group, other groups were each subjected to a whole body exposure to ^60Co-γ rays at a total dose of 3.0 Gy to prepare the models of leukopenia in mice, followed by further administration for 14 days. The G-CSF group was adminitrated through subcutaneous injection for 5 days from the irradiation day on and the hemogram was determined by taking blood respectively on day 3, day 7 and day 14 after irradiation.

[2] = Experimental Example 2, 0.8 mg/kg
[3] = Experimental Example 2, 0.8 mg/kg, CY 100 mg/kg x 3 days
[4] = Experimental Example 2, 0.8 mg/kg, especially on day 3 after modeling
[5] = Experimental Example 3, 0.8 mg/kg
[6] = Experimental Example 3, 0.8 mg/kg, day 5 after modeling
[7] = 0.80 mg/kg i.g., 3.0 Gy whole body
[8] = Experimental Example 2, 40 μg/kg subcutaneous injection
[9] = Experimental Example 3, 40 μg/kg subcutaneous injection
[10] = 40 μg/kg subcutaneous injection
[11] = 40 μg/kg s.c. for 5 days from irradiation day, 3.0 Gy

Row | Molecule | leukocytes (WBC), Day 3 after modeling (leukocytes (WBC); [2]) | leukocytes (WBC), Day 5 after modeling (leukocytes (WBC); [2]) | leukocytes (WBC), Day1 after modeling (leukocytes (WBC); [3]) | difference in increasing leukocytes compared with G-22 (in words) (leukocytes (WBC); [4]) | Growth Rate of Proliferation %, 1 μg/ml [1] [%] | HD50 (drug concentration causing 50% hemolysis) (erythrocytes) [µg/mL] | leukocytes, Day 1 after modeling (leukocytes (WBC); [5]) | leukocytes, Day 5 after modeling (leukocytes (WBC); [5]) | difference in increasing leukocytes compared with G-22 (in words) (leukocytes (WBC); [6]) | platelets, Day 1 after modelng (platelets (PLT); 0.8 mg/kg) | platelets, Day 5 after modeling (platelets (PLT); 0.8 mg/kg) | difference in increasing platelets compared with G-22 (in words) (platelets (PLT); 0.8 mg/kg) | further results
1 | C[C@H]1[C@H](C)CC[C@]2(C(=O)O[C@@H]3O[C@H](CO)[C@@H](O)[C@H](O)[C@H]3O)CC[C@]3(C)C(=CC[C@@H]4[C@@]5(C)CC[C@H](O[C@@H]6OC[C@H](O)[C@H](O)[C@H]6O)C(C)(C)[C@@H]5CC[C@]43C)[C@H]12 [Sample G-8, 3-O-(α-L-arabopyranosyl) ursolic acid-28-O-(β-D-glucopyranosyl) ester] | 6.91 ± 2.54**★ | 15.32 ± 9.07 | 0.85 ± 0.39 | obvious difference in increasing leukocytes | 29.5 | 69.96 | – | – | – | – | – | – | –
2 | C[C@H]1[C@H](C)CC[C@]2(C(=O)O[C@@H]3OC[C@H](O)[C@H](O)[C@H]3O)CC[C@]3(C)C(=CC[C@@H]4[C@@]5(C)CC[C@H](O[C@@H]6OC[C@H](O)[C@H](O)[C@H]6O)C(C)(C)[C@@H]5CC[C@]43C)[C@H]12 [Sample G-1, 3-O-(α-L-arabopyranosyl) ursolic acid-28-O-(α-L-arabopyranosyl) ester] | 7.85 ± 3.00**★★ | 15.46 ± 10.44 | 1.14 ± 0.56Δ | obvious difference in increasing leukocytes | 31.3 | 345 | 0.98 ± 0.55 | 9.33 ± 5.17 | significant difference in increasing leukocytes and platelets | 504.67 ± 117.81 | 413.00 ± 218.95*★★ | significant difference in increasing leukocytes and platelets | effect in increasing leukocytes (in words) (leukocytes (WBC); [5]): obvious effect in increasing leukocytes and platelets; effect in increasing platelets (in words) (platelets (PLT); 0.8 mg/kg): obvious effect in increasing leukocytes and platelets; tendency to cause hemolysis (in words) (erythrocytes; comparison among G-1, G-3, G-6, G-8): the most difficult to cause hemolysis; effect on leucocyte count of leukopenia mice (in words) (WBC; 0.80 mg/kg gastric perfusion, versus model group, day 7 and day 14 after irradiation): increased obviously; WBC, 1 week after administration (WBC; 0.80 mg/kg i.g. once a day for 7 days, before irradiation): 9.21 ± 2.16 109/L; WBC, Day 3 after irradiation (WBC; [7]): 2.06 ± 0.75 109/L; WBC, Day 7 after irradiation (WBC; [7]): 4.59 ± 1.52** 109/L; WBC, Day 14 after irradiation (WBC; [7]): 6.37 ± 1.54** 109/L; WBC, Normal (WBC; normal hemogram before administration (baseline), 0.80 mg/kg i.g. group): 8.96 ± 1.58 109/L
3 | C[C@H]1[C@H](C)CC[C@]2(C(=O)O[C@@H]3O[C@H](CO)[C@@H](O)[C@H](O)[C@H]3O)CC[C@]3(C)C(=CC[C@@H]4[C@@]5(C)CC[C@H](O[C@@H]6O[C@H](CO)[C@@H](O)[C@H](O)[C@H]6O)C(C)(C)[C@@H]5CC[C@]43C)[C@H]12 [Sample G-3, 3-O-(β-D-glucopyranosyl) ursolic acid-28-O-(β-D-glucopyranosyl) ester] | – | – | – | – | 25.2 | 137.99 | 1.16 ± 0.53 | 5.62 ± 2.78 | significant difference in increasing leukocytes and platelets | 473.12 ± 144.68 | 341.93 ± 186.39**★ | significant difference in increasing leukocytes and platelets | –
4 | C[C@H]1[C@H](C)CC[C@]2(C(=O)O)CC[C@]3(C)C(=CC[C@@H]4[C@@]5(C)CC[C@H](O[C@@H]6OC[C@H](O)[C@H](O)[C@H]6O)C(C)(C)[C@@H]5CC[C@]43C)[C@H]12 [Sample G-6, 3-O-(α-L-arabopyranosyl) ursolic acid] | 7.13 ± 2.61**★ | 17.16 ± 14.13 | 1.19 ± 0.47 | obvious difference in increasing leukocytes | 29.9 | 121.40 | – | – | – | – | – | – | –
5 | B1 | – | – | – | – | – | – | – | – | – | – | – | – | leukocytes (WBC), Day1 after modeling (leukocytes (WBC); [8]): 1.17 ± 0.33; leukocytes (WBC), Day 3 after modeling (leukocytes (WBC); [8]): 5.93 ± 3.10; leukocytes (WBC), Day 5 after modeling (leukocytes (WBC); [8]): 13.18 ± 5.53; leukocytes, Day 1 after modeling (leukocytes (WBC); [9]): 0.63 ± 0.20; leukocytes, Day 5 after modeling (leukocytes (WBC); [9]): 9.70 ± 5.28; platelets, Day 1 after modelng (platelets (PLT); [10]): 408.38 ± 86.38; platelets, Day 5 after modeling (platelets (PLT); [10]): 206.64 ± 140.14; effect in increasing platelets (in words) (platelets (PLT); G-CSF 40 μg/kg subcutaneous injection): no obvious effect in increasing platelets; Growth Rate of Proliferation % ([1]; G-CSF positive drug at 5 pg/ml): 33.2%; WBC, Day 3 after irradiation (WBC; [11]): 3.71 ± 1.11** 109/L; WBC, Day 7 after irradiation (WBC; [11]): 4.56 ± 1.17** 109/L; WBC, Day 14 after irradiation (WBC; [11]): 7.01 ± 1.52** 109/L; WBC, 1 week after administration (WBC; G-CSF group before irradiation, G-CSF is given only from the irradiation day on): 9.89 ± 3.30 109/L; WBC, Normal (WBC; normal hemogram (baseline), G-CSF group, not yet dosed): 8.64 ± 2.01 109/L
